In US12371430B2, “5-morpholin-4-yl-pyrazolo[4,3-b]pyridine derivatives” (Merck Patent GmbH, priority 2018, dated 2025):

Assays:
[1] = target: ATR/ATRIP (Homo sapiens (Human), UniProt Q13535); experiment: ATR/ATRIP kinase assay (TR-FRET, p53 Ser15 phosphorylation); format: biochemical; settings: 0.5 μM ATP, 50 nM p53
Procedure, shortened: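 Full-length human ATR/ATRIP co-expressed in mammalian cells (typically 0.3 nM) preincubated with compound 15 min at 22° C, then 50 nM cmyc-p53 and 0.5 μM ATP added for typically 25 min; HEPES pH 8.0 with Mg2+/Mn2+. p53 Ser15 phosphorylation read by HTRF (665/615 ratio); IC50 by nonlinear regression.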

[2] = test system: phosphorylation of Chk1 (Ser 345) in HT29 colon adenocarcinoma cells; experiment: pCHK1 cellular assay; format: cell-based; settings: Homo sapiens, HT-29, hydroxyurea 3 mM, 4 h
Procedure, shortened: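 HT29 cells plated ≥20 h, then compound (1 nM–30 μM final) with hydroxyurea (3 mM final) added together for 4 h at 37 °C. After MeOH/Triton fixation-permeabilisation, anti-pChk1 immunostaining plus nuclear stain; nuclear pChk1 imaged by confocal high content reader, reported as % positive nuclei.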

[3] = target: Kv11.1 (hERG) ion channel (Homo sapiens (Human), UniProt Q12809); experiment: Kv11.1 (hERG) ion channel activity, whole cell patch clamp in HEK293; format: cell-based; settings: for Ki: heading: hERG Ki, HEK293 cells stably expressing hERG, patch clamp
Chain of Kv11.1 (hERG) ion channel (Q12809 whole entry): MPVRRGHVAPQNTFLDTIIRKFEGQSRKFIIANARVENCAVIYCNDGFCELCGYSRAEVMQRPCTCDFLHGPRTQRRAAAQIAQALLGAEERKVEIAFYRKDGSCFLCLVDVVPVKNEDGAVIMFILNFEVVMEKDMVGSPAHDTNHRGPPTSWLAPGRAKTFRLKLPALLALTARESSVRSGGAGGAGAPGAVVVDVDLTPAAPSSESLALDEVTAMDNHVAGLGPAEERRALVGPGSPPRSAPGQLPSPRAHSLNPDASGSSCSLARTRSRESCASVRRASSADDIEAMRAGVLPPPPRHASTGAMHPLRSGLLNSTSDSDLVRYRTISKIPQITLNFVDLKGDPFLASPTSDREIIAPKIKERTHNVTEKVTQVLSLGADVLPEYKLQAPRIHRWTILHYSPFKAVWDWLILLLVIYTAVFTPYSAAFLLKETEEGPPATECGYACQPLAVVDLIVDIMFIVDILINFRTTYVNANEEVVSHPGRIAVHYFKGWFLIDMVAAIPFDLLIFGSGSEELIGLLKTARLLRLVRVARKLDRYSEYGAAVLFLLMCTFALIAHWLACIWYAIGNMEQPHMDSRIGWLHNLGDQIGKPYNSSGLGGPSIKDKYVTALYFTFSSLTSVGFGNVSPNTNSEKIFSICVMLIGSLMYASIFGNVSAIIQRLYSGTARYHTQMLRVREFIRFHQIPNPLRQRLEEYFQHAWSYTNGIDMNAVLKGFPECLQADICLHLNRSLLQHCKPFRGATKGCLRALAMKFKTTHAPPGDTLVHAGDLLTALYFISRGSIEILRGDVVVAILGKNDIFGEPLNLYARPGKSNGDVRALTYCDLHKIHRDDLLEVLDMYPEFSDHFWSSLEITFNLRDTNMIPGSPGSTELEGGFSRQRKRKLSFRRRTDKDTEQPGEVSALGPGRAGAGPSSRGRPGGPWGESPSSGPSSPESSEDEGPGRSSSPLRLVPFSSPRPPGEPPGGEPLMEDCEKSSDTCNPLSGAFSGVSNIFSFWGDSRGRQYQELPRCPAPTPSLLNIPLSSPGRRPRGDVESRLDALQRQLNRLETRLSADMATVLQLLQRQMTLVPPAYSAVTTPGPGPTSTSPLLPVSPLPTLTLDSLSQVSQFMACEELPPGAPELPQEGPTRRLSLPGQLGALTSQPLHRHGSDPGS
Experimental: Kv11.1 (hERG) Ion Channel Activity
In this assay, a potential in vitro effect of test compounds on the Kv11.1 (hERG) ion channel current is investigated which mediates the rapidly activating, delayed rectifier cardiac potassium current (IKr). The assay is performed with a stable Kv11.1 (hERG) transfected human embryonic kidney cell line (HEK293) by whole cell patch clamp technique carried out at room temperature.
The Kv11.1 (hERG) ion channel blocker quinidine is used as reference compound. The effects of the test compounds and quinidine are normalized to the corresponding vehicle control. The whole cell recordings are carried out with an automated patch clamp device Patchliner™, Nanion Technologies, Munich). Hereby the Patch Clamp measurements run on silicate-coated chips with a hole of a defined diameter. Solutions, cell suspension and compounds are applied by a Teflon-laminated pipette needle through microfluidic silicate-laminated channels. Commercial patch clamp amplifiers (EPC10, HEKA Elektronik Dr. Schulze GmbH, Germany) are used for the patch clamp recordings. HEK293 cells stably expressing the hERG gene are held at −80 mV. Steady-state inhibition of Kv11.1 (hERG) potassium current due to test/reference compound application is measured using a pulse pattern with fixed amplitudes: 51 ms/−80 mV, 500 ms/+40 mV, 500 ms/−40 mV, 200 ms/−80 mV. The hERG-specific voltage protocol is repeated at 10 s intervals. The leak current is subtracted by a P4 leak subtraction. Cells are resuspended in extracellular patch clamp solution (EC) and applied into the chip. After trapping the cell, the EC is exchanged by seal enhancer solution (SE) to improve the sealing procedure. When the whole cell configuration is attained, seal enhancer is washed out by the application of EC. The recording is started in EC for 1.5 min. Afterwards DMSO (vehicle control, 0.1% DMSO) is applied and the control current is measured for 3 min. Following control steady-state current, test compound is applied twice at the same concentration and the tail current is measured for 3.5 min each. For the determination of a concentration-relationship, the test compound is applied as a cumulative concentration-response curve and each concentration is measured for 5 min. The reference compound quinidine is treated in the same way. The effect on Kv11.1 (hERG) ion channel activity is judged from the tail current amplitude monitored at −40 mV (current of interest, COI). Results are calculated from the last recorded current traces. Changes in Kv11.1 (hERG) ion channel activity between control value, defined as 100% Kv11.1 (hERG) ion channel activity, application of test compound and application of quinidine is reported as percent change of control value of COI. An aliquot of test compound is collected for concentration verification during the recording. The sample is immediately measured by HPLC and the final compound concentration within the assay is calculated according to a calibration curve.

Chain of ATR/ATRIP (Q13535 whole entry): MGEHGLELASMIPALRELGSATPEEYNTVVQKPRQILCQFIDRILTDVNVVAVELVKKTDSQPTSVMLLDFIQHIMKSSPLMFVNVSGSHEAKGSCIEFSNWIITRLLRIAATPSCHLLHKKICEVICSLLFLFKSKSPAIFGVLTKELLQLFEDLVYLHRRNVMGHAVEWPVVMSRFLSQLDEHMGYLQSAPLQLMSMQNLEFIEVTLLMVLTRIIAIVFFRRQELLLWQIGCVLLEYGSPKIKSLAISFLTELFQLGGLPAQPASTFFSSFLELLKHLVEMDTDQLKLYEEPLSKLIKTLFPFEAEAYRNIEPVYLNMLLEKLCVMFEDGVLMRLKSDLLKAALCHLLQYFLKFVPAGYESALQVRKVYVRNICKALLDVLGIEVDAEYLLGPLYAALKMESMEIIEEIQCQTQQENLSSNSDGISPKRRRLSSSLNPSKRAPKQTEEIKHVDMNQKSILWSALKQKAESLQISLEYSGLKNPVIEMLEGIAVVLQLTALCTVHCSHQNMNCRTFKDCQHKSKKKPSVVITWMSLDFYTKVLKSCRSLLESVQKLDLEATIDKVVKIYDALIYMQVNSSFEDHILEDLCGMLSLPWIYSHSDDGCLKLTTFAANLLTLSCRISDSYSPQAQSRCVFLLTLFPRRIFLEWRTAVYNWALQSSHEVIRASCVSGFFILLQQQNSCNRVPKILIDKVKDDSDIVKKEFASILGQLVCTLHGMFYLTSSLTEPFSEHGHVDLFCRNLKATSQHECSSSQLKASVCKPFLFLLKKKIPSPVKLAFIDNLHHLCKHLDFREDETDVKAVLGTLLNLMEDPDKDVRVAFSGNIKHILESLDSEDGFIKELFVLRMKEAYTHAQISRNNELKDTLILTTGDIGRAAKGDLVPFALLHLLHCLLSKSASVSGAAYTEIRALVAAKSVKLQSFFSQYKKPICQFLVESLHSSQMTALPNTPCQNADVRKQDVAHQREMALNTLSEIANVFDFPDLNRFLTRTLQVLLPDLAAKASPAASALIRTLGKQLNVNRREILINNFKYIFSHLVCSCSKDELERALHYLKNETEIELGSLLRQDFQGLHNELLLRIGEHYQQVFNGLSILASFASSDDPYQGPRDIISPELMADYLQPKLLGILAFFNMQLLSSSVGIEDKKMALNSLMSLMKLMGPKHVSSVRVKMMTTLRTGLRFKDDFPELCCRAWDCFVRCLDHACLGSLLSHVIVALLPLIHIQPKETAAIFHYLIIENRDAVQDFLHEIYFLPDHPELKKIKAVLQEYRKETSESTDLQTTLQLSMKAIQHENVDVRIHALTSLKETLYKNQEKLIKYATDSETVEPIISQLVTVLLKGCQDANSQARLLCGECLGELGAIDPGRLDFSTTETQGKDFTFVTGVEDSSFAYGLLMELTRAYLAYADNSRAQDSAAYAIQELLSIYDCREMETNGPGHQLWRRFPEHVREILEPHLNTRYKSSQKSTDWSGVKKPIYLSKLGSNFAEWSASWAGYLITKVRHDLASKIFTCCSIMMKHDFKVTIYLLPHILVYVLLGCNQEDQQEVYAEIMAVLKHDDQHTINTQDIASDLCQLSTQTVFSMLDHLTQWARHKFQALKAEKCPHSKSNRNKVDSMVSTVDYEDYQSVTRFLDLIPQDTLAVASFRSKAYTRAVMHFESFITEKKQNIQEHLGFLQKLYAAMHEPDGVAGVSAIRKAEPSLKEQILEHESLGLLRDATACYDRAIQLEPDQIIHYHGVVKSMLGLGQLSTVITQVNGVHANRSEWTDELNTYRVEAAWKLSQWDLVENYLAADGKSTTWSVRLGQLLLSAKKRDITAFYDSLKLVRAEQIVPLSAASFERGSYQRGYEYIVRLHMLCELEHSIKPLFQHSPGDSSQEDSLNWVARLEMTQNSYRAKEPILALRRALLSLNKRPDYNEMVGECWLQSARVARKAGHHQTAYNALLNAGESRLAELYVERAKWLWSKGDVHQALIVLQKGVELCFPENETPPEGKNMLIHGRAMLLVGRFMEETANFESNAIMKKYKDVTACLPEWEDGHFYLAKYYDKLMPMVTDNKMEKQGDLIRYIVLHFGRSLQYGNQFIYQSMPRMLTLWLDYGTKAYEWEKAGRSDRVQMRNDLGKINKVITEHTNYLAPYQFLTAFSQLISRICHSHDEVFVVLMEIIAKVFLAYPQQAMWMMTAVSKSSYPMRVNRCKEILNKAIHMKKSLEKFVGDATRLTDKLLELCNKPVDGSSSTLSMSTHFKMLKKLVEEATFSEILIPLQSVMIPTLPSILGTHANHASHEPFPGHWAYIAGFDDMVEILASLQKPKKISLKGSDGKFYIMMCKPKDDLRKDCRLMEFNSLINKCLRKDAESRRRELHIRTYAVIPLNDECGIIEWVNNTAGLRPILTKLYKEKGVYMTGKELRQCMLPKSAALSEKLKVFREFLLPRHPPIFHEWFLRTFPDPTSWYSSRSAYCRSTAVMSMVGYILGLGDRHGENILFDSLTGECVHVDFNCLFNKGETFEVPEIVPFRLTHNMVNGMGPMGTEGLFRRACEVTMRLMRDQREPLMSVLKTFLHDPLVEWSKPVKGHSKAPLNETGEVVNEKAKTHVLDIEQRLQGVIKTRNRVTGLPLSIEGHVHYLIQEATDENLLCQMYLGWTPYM
Chain of ATR/ATRIP (Q8WXE1 whole entry partner): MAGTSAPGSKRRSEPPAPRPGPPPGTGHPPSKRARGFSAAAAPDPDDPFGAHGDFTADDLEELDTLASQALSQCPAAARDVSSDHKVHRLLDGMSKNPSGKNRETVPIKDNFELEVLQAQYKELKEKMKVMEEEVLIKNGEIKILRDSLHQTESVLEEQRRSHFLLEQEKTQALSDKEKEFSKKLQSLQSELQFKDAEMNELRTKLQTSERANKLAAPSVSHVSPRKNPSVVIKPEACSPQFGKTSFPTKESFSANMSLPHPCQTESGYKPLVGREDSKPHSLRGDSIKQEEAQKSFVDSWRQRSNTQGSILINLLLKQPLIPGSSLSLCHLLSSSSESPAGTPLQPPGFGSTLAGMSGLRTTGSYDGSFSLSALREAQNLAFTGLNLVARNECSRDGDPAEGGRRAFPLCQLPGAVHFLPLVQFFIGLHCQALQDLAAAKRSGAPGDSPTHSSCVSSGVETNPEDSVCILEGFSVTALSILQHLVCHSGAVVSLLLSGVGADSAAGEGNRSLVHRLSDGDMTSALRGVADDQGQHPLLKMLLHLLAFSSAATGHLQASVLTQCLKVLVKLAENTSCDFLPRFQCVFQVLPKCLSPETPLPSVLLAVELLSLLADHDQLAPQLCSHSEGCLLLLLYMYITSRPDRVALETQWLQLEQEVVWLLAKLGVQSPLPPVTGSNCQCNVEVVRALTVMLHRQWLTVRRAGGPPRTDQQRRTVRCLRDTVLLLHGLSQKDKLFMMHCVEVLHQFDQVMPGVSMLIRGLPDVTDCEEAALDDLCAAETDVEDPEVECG

Row | SMILES | IC50 [1] [nM] | IC50 [2] [nM] | hERG % effect @ conc ([3]; @ 30 μM) [%] | Ki [3] [nM] | hERG % effect @ conc ([3]; @ 10 μM) [%]
1 | Cc1ccc(-c2cc(N3CCOC[C@H]3C)nc3c(-c4cc[nH]n4)nn(C)c23)cn1 [Compound 1, 1-Methyl-5-((R)-3-methyl-morpholin-4-yl)-7-(6-methyl-pyridin-3-yl)-3-(1H-pyrazol-3-yl)-1H-pyrazolo[4,3-b]pyridine] | 2.3 | 10 to 100 | −28 | > 30000 | –
2 | CC(C)n1cc(-c2cc(N3CCOC[C@H]3C)nc3c(-c4cc[nH]n4)nn(C)c23)cn1 [Compound 18, 7-(1-Isopropyl-1H-pyrazol-4-yl)-1-methyl-5-((R)-3-methyl-morpholin-4-yl)-3-(1H-pyrazol-3-yl)-1H-pyrazolo[4,3-b]pyridine] | 6.2 | 100 to 1000 | – | > 10000 | −14
3 | Cc1cc(S(C)(=O)=O)ncc1-c1cc(N2CCOC[C@H]2C)nc2c(-c3cc[nH]n3)nn(C)c12 [Compound 17, 7-(6-Methanesulfonyl-4-methyl-pyridin-3-yl)-1-methyl-5-((R)-3-methyl-morpholin-4-yl)-3-(1H-pyrazol-3-yl)-1H-pyrazolo[4,3-b]pyridine] | 3.6 | 10 to 100 | – | > 10000 | 5
4 | Cc1ccccc1-c1cc(N2CCOC[C@H]2C)nc2c(-c3cc[nH]n3)n[nH]c12 [Compound 35, (3R)-3-Methyl-4-[7-(2-methylphenyl)-3-(1H-pyrazol-3-yl)-1H-pyrazolo[4,3-b]pyridin-5-yl]morpholine] | 0.5 | 10 to 100 | – | > 10000 | −23
5 | C[C@@H]1COCCN1c1cc(C2(S(C)(=O)=O)CC2)c2c(n1)c(-c1cc[nH]n1)nn2C [Compound 26, 7-(1-Methanesulfonyl-cyclopropyl)-1-methyl-5-((R)-3-methyl-morpholin-4-yl)-3-(1H-pyrazol-3-yl)-1H-pyrazolo[4,3-b]pyridine] | 0.8 | 10 to 100 | −24 | > 30000 | –
6 | C[C@@H]1COCCN1c1cc(-c2cncn2C)c2c(n1)c(-c1cc[nH]n1)nn2C [Compound 42, 1-Methyl-7-(3-methyl-3H-imidazol-4-yl)-5-((R)-3-methyl-morpholin-4-yl)-3-(1H-pyrazol-3-yl)-1H-pyrazolo[4,3-b]pyridine] | 0.3 | < 10 | −26 | > 30000 | –
7 | C[C@@H]1COCCN1c1cc(-c2cccc(C#N)c2)c2c(n1)c(-c1cc[nH]n1)nn2C [Compound 48, 3-{1-Methyl-5-[(3R)-3-methylmorpholin-4-yl]-3-(1H-pyrazol-3-yl)-1H-pyrazolo[4,3-b]pyridin-7-yl}benzonitrile] | 2 | 10 to 100 | – | > 10000 | −32
8 | C[C@@H]1COCCN1c1cc(-c2ccn(CCF)n2)c2c(n1)c(-c1cc[nH]n1)nn2C [Compound 34, 7-[1-(2-Fluoro-ethyl)-1H-pyrazol-3-yl]-1-methyl-5-((R)-3-methyl-morpholin-4-yl)-3-(1H-pyrazol-3-yl)-1H-pyrazolo[4,3-b]pyridine] | 6.1 | 10 to 100 | – | > 10000 | −1

More lines, main results first:

Row | IC50 [1] [nM] | IC50 [2] [nM] | SMILES | hERG % effect @ conc ([3]; @ 30 μM) [%] | Ki [3] [nM] | hERG % effect @ conc ([3]; @ 10 μM) [%]
9 | 0.9 | 10 to 100 | Cc1nc(S(C)(=O)=O)ccc1-c1cc(N2CCOC[C@H]2C)nc2c(-c3cc[nH]n3)nn(C)c12 [Compound 11, (3R)-4-[7-(6-Methanesulfonyl-2-methylpyridin-3-yl)-1-methyl-3-(1H-pyrazol-3-yl)-1H-pyrazolo[4,3-b]pyridin-5-yl]-3-methylmorpholine] | – | > 10000 | −5
10 | 50.6 | 100 to 1000 | C[C@@H]1COCCN1c1ccc2c(n1)c(-c1ccn[nH]1)nn2C [Compound 40, (3R)-3-Methyl-4-[1-methyl-3-(1H-pyrazol-5-yl)-1H-pyrazolo[4,3-b]pyridin-5-yl]morpholine] | – | > 10000 | 9
11 | 4.3 | 10 to 100 | C[C@@H]1COCCN1c1cc(C(C)(C)O)c2c(n1)c(-c1cc[nH]n1)nn2C [Compound 25, 2-[1-Methyl-5-((R)-3-methyl-morpholin-4-yl)-3-(1H-pyrazol-3-yl)-1H-pyrazolo[4,3-b]pyridin-7-yl]-propan-2-ol] | – | > 10000 | −1
12 | 0.8 | 10 to 100 | Cc1ccc(-c2cc(N3CCOC[C@H]3C)nc3c(-c4cc[nH]n4)n[nH]c23)cn1 [Compound 2, 5-((R)-3-Methyl-morpholin-4-yl)-7-(6-methyl-pyridin-3-yl)-3-(1H-pyrazol-3-yl)-1H-pyrazolo[4,3-b]pyridine] | – | > 10000 | −3
